According to US9133492B2, “Kanamycin compound, kanamycin-producing Streptomyces species bacterium, and method of producing kanamycin” (iNtRON Biotechnology, Inc., priority 2010, dated 2015):
Converted amounts (≈) assume the structure as drawn. Like-named read-outs stand apart in the source and are kept apart here.

Key:
[1] = tested on: E. coli ATCC 25922(Kan^S); assay: microbe, parasite or virus in culture; type: cell-based, Escherichia coli
Experimental: (§1) In one embodiment of the present invention, antibacterial spectra against kanamycin intermediates and analogs produced by the present invention were measured. Typical gram-negative strains (E. coli and Pseudomonas aeruginosa) and four clinically isolated strains were employed to check the antibacterial spectra (See table 2).
(§2) To check the antibacterial spectra of kanamycin biosynthetic intermediates and their analogs, a total six kinds of Gram-negative bacteria such as kanamycin-sensitive (Kan^S) E. coli ATCC 25922, kanamycin-resistant (Kan^R) Pseudomonas aeruginosa ATCC 27853, Kan^S E. coli CCARM (Culture Collection of Antimicrobial Resistant Microbes, Korea) 1A020, Kan^R E. coli CCARM 1A023, amikacin-sensitive (Amk^S) P. aeruginosa CCARM 2206, and amikacin-resistance (Amk^R) P. aeruginosa CCARM 2178 were used.
(§3) Minimum inhibitory concentrations (MICs) of various kanamycin-related pseudodi- and tri-saccharides and AHBA conjugated kanamycin analogs (except for compounds 16, 18, 19, and 20) were measured by broth microdilution according to the Clinical and Laboratory Standard Institute (CLSI, formerly NCCLS). As described in Example 2, gram-negative E. coli strains, P. aeruginosa strains, and clinically isolated strains were incubated in Mueller-Hinton broth (BD Science) at 30° C. […] An aliquot of water was used as a negative control group. The growth of the strains was observed using the Labsystems Bioscreen C, and the minimum concentrations of the aminoglycoside diluted in the broth medium to inhibit the growth of the bacterial strains were measured.

[2] = tested on: P. aeruginosa ATCC 27853(Kan^R); assay: microbe, parasite or virus in culture; type: cell-based; settings: Pseudomonas aeruginosa, ATCC27853
Experimental: as §1, §2, §3

[3] = tested on: E. coli CCARM 1A020(Kan^S); assay: MIC by broth microdilution (CLSI), antibacterial spectra; type: cell-based, Escherichia coli
Experimental: as §1, §2, §3

[4] = tested on: E. coli CCARM 1A023(Kan^R); assay: as above; type: cell-based, Escherichia coli
Experimental: as §1, §2, §3

[5] = tested on: P. aeruginosa CCARM 2178(Amk^R); assay: as above; type: cell-based, Pseudomonas aeruginosa; settings: for MIC / activity: clinically isolated amikacin-resistant P. aeruginosa strain
Experimental: as §1, §2, §3

[6] = tested on: P. aeruginosa CCARM 2206(Amk^S); assay: as above; type: cell-based, Pseudomonas aeruginosa
Experimental: as §1, §2, §3

[7] = tested on: Gram-negative bacteria (E. coli and Pseudomonas aeruginosa test strains); assay: Antibacterial spectra, comparison across test strains; type: cell-based; settings: for antibacterial activity, 6′-amino vs 6′-hydroxy pseudodisaccharides: against kanamycin-sensitive E. coli strains, compared with 6′-hydroxy derivatives 3 and 9; for antibacterial activity, 3″-amino vs 3″-hydroxy derivatives: against the test strains, compared with corresponding 3″-hydroxy derivatives 5, 13, 14 and 11; for antibacterial activity, 6′-amino vs 6′-hydroxy pseudotrisaccharides: against kanamycin-sensitive test strains, compared with compounds 6 and 12
Experimental: as §1, §2, §3

S. venezuelae = assay: Resistance of S. venezuelae strains to kanamycin; type: cell-based, Streptomyces venezuelae
Experimental: As expected, the recombinant heterologous strain expressing kanA-kanB-kanK (DOS strain) produced compound 1 (21.4 μM) (FIG. 2A). To confer resistance to kanamycin in S. venezuelae without modifying the aminoglycoside structure, three resistance genes gtmF-gtmK-gtmL from the gentamicin gene cluster were introduced into the recombinant heterologous strain. Transformants expressing these genes were resistant to >10.0 mg/ml of the commercially available kanamycin compared to 1.0 μg/ml in control strains. These resistance genes were expressed together with the kanamycin biosynthetic genes in the heterologous host in subsequent experiments.

[8] = Pseudomonas aeruginosa, CCARM2178
[9] = Pseudomonas aeruginosa, CCARM2206
[10] = E. coli ATCC 25922, kanamycin-sensitive typical strain
[11] = E. coli CCARM 1A020, kanamycin-sensitive clinically isolated strain
[12] = E. coli CCARM 1A023, kanamycin-resistant clinically isolated strain
[13] = P. aeruginosa CCARM 2178, amikacin-resistant clinically isolated strain
[14] = P. aeruginosa CCARM 2206, amikacin-sensitive clinically isolated strain
[15] = Escherichia coli, E. coli CCARM 1A023, kanamycin-resistant clinically isolated strain, read-out: MIC
[16] = Pseudomonas aeruginosa, CCARM2178, P. aeruginosa CCARM 2178, amikacin-resistant clinically isolated strain, read-out: MIC
[17] = Pseudomonas aeruginosa, CCARM2206, P. aeruginosa CCARM 2206, amikacin-sensitive clinically isolated strain, read-out: MIC

N[C@H]1[C@@H](O[C@H]2[C@H](O)[C@@H](O)[C@H](N)C[C@@H]2N)O[C@H](CO)[C@@H](O)[C@@H]1O [Compound 3, paromamine]
MIC ([1]; Escherichia coli, ATCC25922): 128 µg/mL (≈ 396 µM)
MIC [2]: > 128 µg/mL
MIC ([3]; Escherichia coli): 128 µg/mL (≈ 396 µM)
MIC ([4]; Escherichia coli): > 128 µg/mL
MIC [5, 8]: > 128 µg/mL
MIC [6, 9]: > 128 µg/mL

NC[C@H]1O[C@H](O[C@H]2[C@H](O)[C@@H](O)[C@H](N)C[C@@H]2N)[C@H](N)[C@@H](O)[C@@H]1O [Compound 4, neamine]
MIC ([1]; Escherichia coli, ATCC25922): 64 µg/mL (≈ 199 µM)
MIC [2]: > 128 µg/mL
MIC ([3]; Escherichia coli): 64 µg/mL (≈ 199 µM)
MIC ([4]; Escherichia coli): > 128 µg/mL
MIC [5, 8]: > 128 µg/mL
MIC [6, 9]: 128 µg/mL (≈ 397 µM)
antibacterial activity, 6′-amino vs 6′-hydroxy pseudodisaccharides [7]: more active

N[C@H]1[C@@H](O[C@H]2[C@H](O)[C@@H](O[C@H]3O[C@H](CO)[C@@H](O)[C@H](O)[C@H]3O)[C@H](N)C[C@@H]2N)O[C@H](CO)[C@@H](O)[C@@H]1O [Compound 5, 3″-deamino-3″-hydroxykanamycin C]
MIC [1, 10]: 128 µg/mL (≈ 264 µM)
MIC [3, 11]: NA (NA represents no activity at 128 μg/mL)
MIC [4, 12]: NA (NA represents no activity at 128 μg/mL)
MIC [5, 13]: NA (NA represents no activity at 128 μg/mL)
MIC [6, 14]: NA (NA represents no activity at 128 μg/mL)

N[C@@H]1[C@@H](O)[C@@H](O[C@@H]2[C@@H](O)[C@H](O[C@H]3O[C@H](CO)[C@@H](O)[C@H](O)[C@H]3N)[C@@H](N)C[C@H]2N)O[C@H](CO)[C@H]1O [Compound 6, kanamycin C]
MIC [1, 10]: 16 µg/mL (≈ 33 µM)
MIC [3, 11]: 16 µg/mL (≈ 33 µM)
MIC [4, 12]: NA (NA represents no activity at 128 μg/mL)
MIC [5, 13]: NA (NA represents no activity at 128 μg/mL)
MIC [6, 14]: 64 µg/mL (≈ 132 µM)
antibacterial activity, 3″-amino vs 3″-hydroxy derivatives [7]: increased activity

NC[C@H]1O[C@H](O[C@H]2[C@H](O)[C@@H](O[C@H]3O[C@H](CO)[C@@H](O)[C@H](N)[C@H]3O)[C@H](N)C[C@@H]2N)[C@H](N)[C@@H](O)[C@@H]1O [Compound 7, kanamycin B, reference compound]
MIC [1, 10]: 2 µg/mL (≈ 4.14 µM)
MIC [3, 11]: 4 µg/mL (≈ 8.27 µM)
MIC [4, 12]: NA (NA represents no activity at 128 μg/mL)
MIC [5, 13]: NA (NA represents no activity at 128 μg/mL)
MIC [6, 14]: 32 µg/mL (≈ 66.2 µM)
antibacterial activity, 6′-amino vs 6′-hydroxy pseudotrisaccharides [7]: more active
antibacterial activity, 3″-amino vs 3″-hydroxy derivatives [7]: increased activity

NC[C@@H]1O[C@@H](O[C@H]2[C@H](O)[C@@H](O[C@H]3O[C@H](CO)[C@@H](O)[C@H](N)[C@H]3O)[C@H](N)C[C@@H]2N)[C@@H](O)[C@H](O)[C@H]1O [Compound 8, kanamycin A, reference compound]
MIC [1, 10]: 2 µg/mL (≈ 4.13 µM)
MIC [3, 11]: 4 µg/mL (≈ 8.26 µM)
MIC [4, 12]: NA (NA represents no activity at 128 μg/mL)
MIC [5, 13]: NA (NA represents no activity at 128 μg/mL)
MIC [6, 14]: 16 µg/mL (≈ 33 µM)
antibacterial activity, 6′-amino vs 6′-hydroxy pseudotrisaccharides [7]: more active
antibacterial activity, 3″-amino vs 3″-hydroxy derivatives [7]: increased activity

NC1CC(N)C(OC2OC(CO)C(O)C(O)C2O)C(O)C1O (stereo not shown) [Compound 9, 2′-deamino-2′-hydroxyparomamine]
MIC [3, 11]: 128 µg/mL (≈ 395 µM)
MIC [4, 12]: NA (NA represents no activity at 128 μg/mL)
MIC [5, 13]: NA (NA represents no activity at 128 μg/mL)
MIC [6, 14]: NA (NA represents no activity at 128 μg/mL)

NCC1OC(OC2C(N)CC(N)C(O)C2O)C(O)C(O)C1O (stereo not shown) [Compound 10, 2′-deamino-2′-hydroxyneamine]
MIC [1, 10]: 64 µg/mL (≈ 198 µM)
MIC [3, 11]: 64 µg/mL (≈ 198 µM)
MIC [4, 12]: NA (NA represents no activity at 128 μg/mL)
MIC [5, 13]: NA (NA represents no activity at 128 μg/mL)
MIC [6, 14]: 128 µg/mL (≈ 396 µM)
antibacterial activity, 6′-amino vs 6′-hydroxy pseudodisaccharides [7]: more active

N[C@@H]1C[C@H](N)[C@@H](O[C@H]2O[C@H](CO)[C@@H](O)[C@H](O)[C@H]2O)C(O)[C@H]1O[C@H]1O[C@H](CO)[C@@H](O)[C@H](O)[C@H]1O (stereo partly shown) [Compound 11, 3″-deamino-3″-hydroxykanamycin X]
MIC [3, 11]: NA (NA represents no activity at 128 μg/mL)
MIC [4, 12]: NA (NA represents no activity at 128 μg/mL)
MIC [5, 13]: NA (NA represents no activity at 128 μg/mL)
MIC [6, 14]: NA (NA represents no activity at 128 μg/mL)

N[C@@H]1[C@@H](O)[C@@H](O[C@@H]2[C@@H](O)[C@H](O[C@H]3O[C@H](CO)[C@@H](O)[C@H](O)[C@H]3O)[C@@H](N)C[C@H]2N)O[C@H](CO)[C@H]1O [Compound 12, kanamycin X]
MIC [1, 10]: 16 µg/mL (≈ 33 µM)
MIC [3, 11]: 16 µg/mL (≈ 33 µM)
MIC [4, 12]: NA (NA represents no activity at 128 μg/mL)
MIC [5, 13]: NA (NA represents no activity at 128 μg/mL)
MIC [6, 14]: 64 µg/mL (≈ 132 µM)
antibacterial activity, 3″-amino vs 3″-hydroxy derivatives [7]: increased activity

NC[C@H]1O[C@H](O[C@H]2[C@H](O)[C@@H](O[C@H]3O[C@H](CO)[C@@H](O)[C@H](O)[C@H]3O)[C@H](N)C[C@@H]2N)[C@H](N)[C@@H](O)[C@@H]1O [Compound 13, 3″-deamino-3″-hydroxykanamycin B]
MIC [3, 11]: 128 µg/mL (≈ 264 µM)
MIC [4, 12]: NA (NA represents no activity at 128 μg/mL)
MIC [5, 13]: NA (NA represents no activity at 128 μg/mL)
MIC [6, 14]: NA (NA represents no activity at 128 μg/mL)

NCC[C@H](O)C(=O)N[C@@H]1C[C@H](N)[C@@H](O[C@H]2O[C@H](CN)[C@@H](O)[C@H](O)[C@H]2O)[C@H](O)[C@H]1O[C@H]1O[C@H](CO)[C@@H](O)[C@H](N)[C@H]1O [Compound 15, amikacin, reference compound]
MIC ([1]; Escherichia coli, ATCC25922): 128 µg/mL (≈ 219 µM)
MIC [2]: 64 µg/mL (≈ 109 µM)
MIC ([3]; Escherichia coli): 128 µg/mL (≈ 219 µM)
MIC [4, 15]: 32 µg/mL (≈ 54.6 µM)
MIC [5, 16]: > 128 µg/mL
MIC / activity [5]: no activity
MIC [6, 17]: ≤ 0.25 µg/mL

NCC[C@H](O)C(=O)N[C@@H]1C[C@H](N)[C@@H](O[C@H]2O[C@H](CO)[C@@H](O)[C@H](O)[C@H]2O)[C@H](O)[C@H]1O[C@H]1O[C@H](CO)[C@@H](O)[C@H](N)[C@H]1O [Compound 17, 1-N-AHBA-kanamycin X]
MIC ([1]; Escherichia coli, ATCC25922): 16 µg/mL (≈ 27.3 µM)
MIC [2]: 16 µg/mL (≈ 27.3 µM)
MIC ([3]; Escherichia coli, E. coli CCARM 1A020, kanamycin-sensitive clinically isolated strain, read-out: MIC): 32 µg/mL (≈ 54.6 µM)
MIC [4, 15]: 16 µg/mL (≈ 27.3 µM)
MIC [5, 16]: 64 µg/mL (≈ 109 µM)
antibacterial effect ([5]; amikacin-resistant P. aeruginosa): antibacterial effect
MIC / activity [5]: ~64
MIC [6, 17]: 0.25 µg/mL (≈ 0.426 µM)
antibacterial activity ([7]; against all kanamycin and amikacin-resistant test strains): strong antibacterial activity
antibacterial activity compared with amikacin (compound 15) ([7]; against all the test strains): improved antibacterial activity

NC[C@H]1O[C@H](O[C@H]2[C@H](O)[C@@H](O[C@H]3O[C@H](CO)[C@@H](O)[C@H](N)[C@H]3O)[C@H](N)C[C@@H]2N)[C@H](O)[C@@H](O)[C@@H]1O [kanamycin]
kanamycin concentration the strain is resistant to (S. venezuelae; S. venezuelae transformants expressing resistance genes gtmF-gtmK-gtmL): > 10.0 mg/mL
kanamycin concentration the strain is resistant to (S. venezuelae; control strains): 0.001 mg/mL

kanamycin D [Compound 14]
MIC [3, 11]: 128 µg/mL
MIC [4, 12]: NA (NA represents no activity at 128 μg/mL)
MIC [5, 13]: NA (NA represents no activity at 128 μg/mL)
MIC [6, 14]: NA (NA represents no activity at 128 μg/mL)
